{"source": "patent US20150352099A1", "about": "“Compositions and Methods of Reducing Sedation” (Mentinova Inc., priority 2014, published 2015)", "key": {"[1]": {"system": "Parkinsonian non-human primates", "experiment": "Drug effects on the nervous system (DENS) sedation scores, nalbuphine monotherapy", "format": "in vivo", "settings": "for Sedation Items: Appetite / Sedation Items: Attentiveness / Sedation Items: Eye Movement / Sedation Items: Mouth (excessive salivation, drooling) / Sedation Items: Reactivity: DENS score, total of all intervals; for Sedation Items: Total: total sedation score", "description": "Parkinsonian non-human primates (n=6) were injected (s.c.) with Nalbuphine HCl (NB, dissolved in saline) and evaluated for changes in parkinsonian motor disability (MDS) and drug effects on the nervous system (DENS). Evaluations were performed immediately before injection (baseline), at 30 minutes post-injection and again every 20 minutes thereafter for 110 minutes or until effects were no longer observable. Five NB doses (0.0, 0.016, 0.05, 0.16, 0.50 mg/kg) were tested in each animal with each dose tested 3 times in all animals.\nItemized Sedation scores (see Uthayathas et al., “Assessment of adverse effects of neurotropic drugs in monkeys with the ‘drug effects on the nervous system’ (DENS) scale,” J Neurosci Methods. 2013 Apr. 30; 215(1):97-102, for complete description of the DENS scale, incorporated by reference herein in its entirety). The items in this scale are given in the table with the exception of “Involuntary Movements”, “Bowel” and “Bladder”, which were omitted because they were not scored with this scale. Scores are total values from adding all intervals. Higher scores reflect increased sedative effects. […] Values represent the means±SEM of all animals (n=6)."}, "[2]": {"system": "Parkinsonian non-human primates", "experiment": "Parkinsonian motor disability scores (MDS) versus sedation scores", "format": "in vivo", "settings": "nalbuphine 0.016 mg/kg-0.50 mg/kg in primates; the FIGURE", "text": "The foregoing summary, as well as the following detailed description of the invention, will be better understood when read in conjunction with the appended drawings. The FIGURE is a graph showing total sedation scores as a function of motor disability in non-human primates treated with nalbuphine HCl monotherapy.\nIn other words, severity of dopamine deficiency is a predictor of the sedation severity for the same dose of nalbuphine given to different animals.\nParkinsonian non-human primates (n=6) were injected (s.c.) with Nalbuphine HCl (NB, dissolved in saline) and evaluated for changes in parkinsonian motor disability (MDS) and drug effects on the nervous system (DENS). Evaluations were performed immediately before injection (baseline), at 30 minutes post-injection and again every 20 minutes thereafter for 110 minutes or until effects were no longer observable. […]\nAnimals (n=6) were injected (s.c.) with NB immediately prior to receiving L-dopa (LD; levodopa methyl ester plus 25% benserazide, dissolved in saline and given s.c.). The LD dose was determined individually for each animal based on ‘on’ response and consistency of dyskinesia. Animals were evaluated for changes in parkinsonian motor disability scores (MDS), drug effects on the nervous system (Sedation) and severity of dyskinesias. […]"}, "[3]": {"experiment": "Pharmacokinetic parameters (Cmax, AUC, Tmax) of opioid given alone or with dopaminergic agent", "settings": "sc, 0.25 mg/kg; for AUC / Cmax: plasma; for Tmax: serum"}, "[4]": {"settings": "NB 0.016 mg/kg s.c., mean ± SEM n=6"}, "[5]": {"settings": "NB 0.05 mg/kg s.c., mean ± SEM n=6"}, "[6]": {"settings": "NB 0.16 mg/kg s.c., mean ± SEM n=6"}, "[7]": {"settings": "NB 0.5 mg/kg s.c., mean ± SEM n=6"}}, "note": "Where a name gives a salt, the structure may show the parent alone.", "data": [{"smiles": "Oc1ccc2c3c1O[C@H]1[C@@H](O)CC[C@@]4(O)[C@@H](C2)N(CC2CCC2)CC[C@]314", "note": "[NB, Nalbuphine HCl]", "values": [{"measurement": "Sedation Items: Appetite", "setting": "[1]; [4]", "result": "0.13 ± 0.13"}, {"measurement": "Sedation Items: Attentiveness", "setting": "[1]; [4]", "result": "2.00 ± 0.73"}, {"measurement": "Sedation Items: Eye Movement", "setting": "[1]; [4]", "result": "0.17 ± 0.17"}, {"measurement": "Sedation Items: Mouth (excessive salivation, drooling)", "setting": "[1]; [4]", "result": "0.13 ± 0.09"}, {"measurement": "Sedation Items: Reactivity", "setting": "[1]; [4]", "result": "0.67 ± 0.36"}, {"measurement": "Sedation Items: Total", "setting": "[1]; NB 0.016 mg/kg s.c.", "result": 3.08}, {"measurement": "Sedation Items: Appetite", "setting": "[1]; [5]", "result": "0.56 ± 0.26"}, {"measurement": "Sedation Items: Attentiveness", "setting": "[1]; [5]", "result": "2.75 ± 1.07"}, {"measurement": "Sedation Items: Eye Movement", "setting": "[1]; [5]", "result": "0.54 ± 0.25"}, {"measurement": "Sedation Items: Mouth (excessive salivation, drooling)", "setting": "[1]; [5]", "result": "0.17 ± 0.11"}, {"measurement": "Sedation Items: Reactivity", "setting": "[1]; [5]", "result": "1.58 ± 0.85"}, {"measurement": "Sedation Items: Total", "setting": "[1]; NB 0.05 mg/kg s.c.", "result": 5.61}, {"measurement": "Sedation Items: Mouth (excessive salivation, drooling)", "setting": "[1]; NB 0.16 mg/kg s.c., mean n=6", "result": 0.00}, {"measurement": "Sedation Items: Appetite", "setting": "[1]; [6]", "result": "1.48 ± 1.03"}, {"measurement": "Sedation Items: Attentiveness", "setting": "[1]; [6]", "result": "3.17 ± 1.51"}, {"measurement": "Sedation Items: Eye Movement", "setting": "[1]; [6]", "result": "2.44 ± 0.94"}, {"measurement": "Sedation Items: Reactivity", "setting": "[1]; [6]", "result": "4.1 ± 1.60"}, {"measurement": "Sedation Items: Total", "setting": "[1]; NB 0.16 mg/kg s.c.", "result": 11.19}, {"measurement": "Sedation Items: Appetite", "setting": "[1]; [7]", "result": "4.79 ± 0.78"}, {"measurement": "Sedation Items: Attentiveness", "setting": "[1]; [7]", "result": "5.17 ± 1.34"}, {"measurement": "Sedation Items: Eye Movement", "setting": "[1]; [7]", "result": "3.29 ± 1.10"}, {"measurement": "Sedation Items: Mouth (excessive salivation, drooling)", "setting": "[1]; [7]", "result": "1.17 ± 1.07"}, {"measurement": "Sedation Items: Reactivity", "setting": "[1]; [7]", "result": "6.65 ± 2.15"}, {"measurement": "Sedation Items: Total", "setting": "[1]; NB 0.5 mg/kg s.c.", "result": 21.06}, {"measurement": "parkinsonian motor disability scores (MDS) versus sedation scores", "setting": "[2]", "result": "correlate with sedation scores"}, {"measurement": "AUC", "setting": "[3]; average AUC of opioid, nalbuphine 0.25 mg/kg subcutaneously with L-DOPA 25 mg/kg subcutaneously", "result": "~89", "unit": "ng·h/mL"}, {"measurement": "AUC", "setting": "[3]; average AUC, nalbuphine 0.25 mg/kg subcutaneously, alone", "result": "~96", "unit": "ng·h/mL"}, {"measurement": "Cmax", "setting": "[3]; average Cmax of opioid, nalbuphine 0.25 mg/kg subcutaneously with L-DOPA 25 mg/kg subcutaneously", "result": "~55", "unit": "ng/mL"}, {"measurement": "Cmax", "setting": "[3]; average Cmax, nalbuphine 0.25 mg/kg subcutaneously, alone", "result": "~49", "unit": "ng/mL"}, {"measurement": "Tmax", "setting": "[3]; average Tmax of opioid, nalbuphine 0.25 mg/kg subcutaneously with L-DOPA 25 mg/kg subcutaneously", "result": "~32", "unit": "min"}, {"measurement": "Tmax", "setting": "[3]; average Tmax, nalbuphine 0.25 mg/kg subcutaneously, alone", "result": "~37", "unit": "min"}]}]}
